Structures are written as SMILES. “And” between values parts separate entries of the source, which are not always exact repeats. Identical values can stand only once.

The nature of data set [1]: Metabolite profiling of pooled whole blood, urine and faeces by LC radiochromatograms with AMS. In kind it is in vivo, human. As to the method:
For metabolite profiling in whole blood, urine, and faeces, LC-MS/MS followed by AMS was used. The HPLC system included a 1290 Infinity Sampler, Binary Pump, and thermostat (Agilent, UK). The chromatographic method used an aqueous formic acid (MPA)/ammonium acetate:acetonitrile:methanol (MPB) gradient and a Scherzo SS-C18 HPLC column at a temperature of 40 °C with injection volumes of 50–200 microliters. The gradient was set at 90% MAP and 10% MPB. The mass spectrometer was a Q-Exactive system (Thermo Fisher Scientific, UK) and the AMS a single stage NEC SSAMS-250.
Single whole blood, faeces, and urine pools were created across subjects and radioactive regions representing 10% or more of the circulating radioactivity were analysed (e.g. 10% or more of the circulating radioactivity in whole blood or accounting for 10% or more of the administered radioactivity/dose in urine and faeces), To create the pool, an individual subject AUC pool was prepared, and a constant proportion of each subject pool was taken to create one cross-subject pool. The whole blood sample pool included samples from hours 0–144, the urine sample pool included samples from hours 0–48, and the faeces pool from hours 0–192.
Whole blood, faeces, and urine radiochromatograms were generated for each sample by collecting HPLC fractions at intervals of 2 (30 s) or 4 (15 s) per minute over the run time of 110 min.
Radiochromatograms were generated from AMS data using the LAURA V6 software (LabLogic, Sheffield, UK). Regions of interest were quantified and provisionally identified where possible by assignment of observed peaks in each radiochromatogram to either parent zalunfiban or M1 by retention time matching, with corresponding ^12C-reference standards obtained via LC-UV.
Assignment of parent and metabolites was made by matching retention times with synthesised standards at wavelengths of 210, 230, 254, 270, and 300 nm, using liquid chromatography ultraviolet chromatography (LC-UV).
For extraction of ^14C-zalunfiban from whole blood, weighed aliquots in microcentrifuge tubes were processed with vortex mixing and centrifugation. The supernatant was then harvested and the process repeated with the bullet material in the original tube using acetonitrile and then methanol. The combined aliquots then underwent AMS analysis to determine the extraction recovery. Once optimised, the final combined supernatant was dried under N2 gas at 40 °C and reconstituted with 1 mL methanol:water (20:80, v/v), with vortex mixing and sonication. This was followed by analysis by LC. The radioactivity extraction recovery for whole blood (AUC0–144h) was 54.5%,
For extraction of ^14C-zalunfiban from homogenised faeces, weighed aliquots in microcentrifuge tubes were processed with vortex mixing and centrifugation, and then diluted with acetonitrile, followed by additional mixing, centrifugation, and repeat extraction with methanol:water until optimised. Once optimised, the final combined supernatant was dried under N2 gas at 40 °C and reconstituted with methanol, followed by water, followed by vortex mixing, followed by analysis by LC. The radioactivity extraction recovery for faeces (0–192 h) was 100%.
Urine was not subjected to extraction. An aliquot was dispensed into an LC vial prior to analysis.

For data set [2], the system named is platelet aggregation. Description: In vitro inhibition of ADP-induced platelet aggregation in platelet-rich plasma. The format is cell-based, human. The method, then: Ten mL of whole blood was collected from healthy human donors via venipuncture and treated with an anticoagulant (D-phenylalanyl-prolyl-arginyl chloromethyl ketone). From this, platelet-rich plasma (PRP) was prepared by centrifuging whole blood at room temperature at 650 × g for 4 min. PRP was removed and standardised to a uniform platelet concentration of 3.0 × 10^5/μL, using platelet poor plasma as a diluent, where necessary. […] Platelet aggregation was measured using an aggregometer (PAP-8E C/N 106075; Bio/Data Corp, Horsham PA). For M1 a range of concentrations was tested to produce a single fitted curve, and the Levenberg-Marquardt approach was used to calculate IC50 values.

The nature of data set [3]: Water solubility. In kind it is physicochemical.
The nature of data set [4]: Lipophilicity. In kind it is physicochemical.

Regarding `Nc1cncc(-c2nn3c(=O)cc(N4CCNCC4)nc3s2)c1` [M1, des-gly-zalunfiban], the “Percentage of dose excreted in urine” value in data set [1] (0–48 h) was 52.98% and 53.0%. For the same compound, in data set [1] (0–48 h cross-participant pooled sample), the “Percentage of total radioactivity in urine” value was found to be 64.1%. In data set [1] (0–192 h), the “Percentage of dose excreted in faeces” value was 2.87%. The “Percentage of total radioactivity in faeces” value in data set [1] (0–192 h pooled sample) was 20.8%. The “Percentage of total circulating radioactivity in whole blood” value in data set [1] (AUC0–144 cross-pooled whole blood extract) was found to be 24.4%. Further, in data set [1] (male, human, in vivo), the “Radiochromatogram peak, faeces extract” value is on record as 20.83 %ROI. This compound also had an IC50 in data set [2] (Homo sapiens, Platelet, 20 min, PRP, 20 min at 22°C, ADP-initiated aggregation) of 25.5 ± 3.5 µM. In data set [2] (from IC50 values), the “Antiplatelet activity relative to zalunfiban” value is listed as below 1%. In addition, the solubility in data set [3] was below 0.01 µg/mL. Also, in data set [4], the “Lipophilicity compared with zalunfiban” value is given as “more lipophilic than zalunfiban”.
